{"source": "patent US6436992B1", "about": "“Use of fumaric acid derivatives” (Fumapharm AG, priority 1997, dated 2002)", "test_system": "haemagglutinin formation in mice", "assay": "Inhibition of haemagglutinin formation in mice immunised with sheep erythrocytes, after peroral administration", "type": "in vivo", "key": {"[1]": {"conditions": "mice, 150 mg/kg bodyweight p.o."}, "[2]": {"conditions": "mice, 300 mg/kg bodyweight p.o."}, "[3]": {"conditions": "mice, 600 mg/kg bodyweight p.o."}}, "data": [{"smiles": "COC(=O)/C=C/C(=O)[O-].[Ca+]", "note": "[Methyl hydrogen fumarate-Ca salt]", "values": [{"measurement": "Inhibition of haemagglutinin formation in %", "setting": "[1]", "value": 13, "unit": "%"}, {"measurement": "Suppression index", "setting": "[1]", "value": 0.87}, {"measurement": "Inhibition of haemagglutinin formation in %", "setting": "[2]", "value": 20, "unit": "%"}, {"measurement": "Suppression index", "setting": "[2]", "value": 0.80}, {"measurement": "effect on haemagglutinin formation (in words)", "setting": "mice, 300 mg/kg p.o.", "value": "slight reduction"}, {"measurement": "Inhibition of haemagglutinin formation in %", "setting": "[3]", "value": 38, "unit": "%"}, {"measurement": "Suppression index", "setting": "[3]", "value": 0.62}, {"measurement": "suppressive effect on haemagglutinin formation (in words, over dose range)", "setting": "mice, 150, 300 and 600 mg/kg p.o.", "value": "dosage-dependent suppressive effect"}, {"measurement": "immuno-suppressive effect (conclusion)", "setting": "mice, p.o.", "value": "significant immuno-suppressive effect"}]}]}
